Measurements: ChEMBL document CHEMBL3430912, “GSK Tres Cantos Anti-Kinetoplastid Screening (TCAKS) Data”

Columns and labels:
[1] = tested on: Trypanosoma brucei brucei; experiment: GSK_TCAKS: pIC50 Trypanosoma brucei viability assay using fluorescence intensity. Assay plates (1536-well) were prepared by dispensing 25nL of compound solution per well using an Echo acoustic dispenser (Labcyte).; type: functional, organism-based; settings: Lister 427, 2 h
[2] = tested on: Leishmania donovani; experiment: GSK_TCAKS: pIC50 Leishmania donovani Imaging: Amastigotes/Macrophages. Assay plates (384-well) were prepared by adding 250nL of compound to each well. For single shot assay, the final compound concentration was 5 uM. […] Automated image analysis was performed with a script developed on Acapella High Content Imaging and Analysis Software (PerkinElmer). Output: Average number of amastigotes per macrophage cell were reported for each well.; type: functional, organism-based, Homo sapiens; settings: THP-1
[3] = GSK_TCAKS: pIC50 HepG2 human cell line viability assay using luminiscence. […] Seeding density was checked to ensure that new mono-layers were not more than 50% confluent at the time of harvesting. Cell suspension was added to 500 mL of the same medium at a final density of 1.2 * 10^5 cells/mL. This cell suspension was dispensed (25 uL, 3000 cells per well) into 384-well clear-bottom plates using a Multidrop Combi dispenser. Prior to addition of the cell suspension, the screening compounds (250 nL) were pre-dispensed into the plates with an Echo liquid handler. Plates were incubated for 48 h at 37C, 5% CO2. After incubation, plates equilibrated at room temperature for 30 min before proceeding to develop the luminescent signal. The signal developer, CellTiter-Glo Reagent, was allowed to equilibrate at room temperature for 30 min and added to the plates (25uL per well) using a Multidrop Combi dispenser. Plates were left for 10 min at room temperature for stabilization and then read using a ViewLux.; type: toxicity, cell-based
[4] = tested on: Trypanosoma brucei brucei; experiment: GSK_TCAKS: pIC50 Trypanosoma brucei viability assay using luminiscence. Assay plates (1536-well) were prepared. T. brucei cultures were harvested and counted in a CASY cell counter. A parasite suspension was prepared at a final concentration of 5 * 10^4 cells/mL in complete HMI9 medium and 6uL was dispensed to all wells containing compounds using a Multidrop Combi dispenser. 6uL of HMI9 media with 0.4% DMSO were dispensed to control columns. Plates were incubated for 24 h at 37C, 5% CO2 then tempered for 10 min at room temperature. ATP content was quantified by adding 4 uL of CellTiter-Glo Reagent (Promega) according to the manufacturer's instructions. Luminescence was measured using a ViewLux.; type: functional, organism-based; settings: Lister 427, CASY
[5] = tested on: Trypanosoma cruzi; experiment: (§1) GSK_TCAKS: pIC50 H2C9 Imaging: H9c2 Host Cardiomyocytes. […] Cells were then washed once with PBS before infection. T. cruzi trypomastigotes, collected at days 5 to 8 after infection from LLC-MK2 parasite infected cultures, were allowed to swim out for 4h at 37C from a centrifuged pellet (2,500 rpm/10 min/room temperature). Trypomastigotes were then collected and counted in a CASY Cell Counter. Trypomastigotes, in supplemented DMEM, were added to H9c2 cultures in a multiplicity of infection of 1 and incubated for 18 h. Cells were washed once with PBS before incubation of the infected H9c2 monolayer with trypsin (Life-Technologies) to detach cells from the flask. Cells were counted in a CASY Cell Counter using a 150 um capillary and their density set at 5 * 10^4 cells per mL in supplemented assay DMEM. Infected H9c2 were dispensed into 384-well poly-lysine coated assay plates at 50uL per well using a Multidrop Combi dispenser. After seeding them, the plates were incubated at 37C, 5% CO2 for 72h. Cultures were then fixed and stained by addition of 50 uL of a solution containing 8% formaldehyde and 4 uM DRAQ5 DNA dye (BioStatus, UK) per well. […] Five images were collected per well for reliable statistical analysis. Automated image analysis was performed with a script developed on Acapella High Content Imaging and Analysis Software (PerkinElmer). Output: Number of H9c2 Host Cardiomyocytes nuclei to determine drug-related cytotoxicity.; type: functional, organism-based, Rattus norvegicus; settings: H9c2, 4 h
[6] = biological target: Sterol 14-alpha demethylase (Trypanosoma cruzi (strain CL Brener), UniProt Q7Z1V1); experiment: GSK_TCAKS: pIC50 CYP51 from Trypanosoma cruzi.; type: functional
Sterol 14-alpha demethylase, sequence (Q7Z1V1 whole entry): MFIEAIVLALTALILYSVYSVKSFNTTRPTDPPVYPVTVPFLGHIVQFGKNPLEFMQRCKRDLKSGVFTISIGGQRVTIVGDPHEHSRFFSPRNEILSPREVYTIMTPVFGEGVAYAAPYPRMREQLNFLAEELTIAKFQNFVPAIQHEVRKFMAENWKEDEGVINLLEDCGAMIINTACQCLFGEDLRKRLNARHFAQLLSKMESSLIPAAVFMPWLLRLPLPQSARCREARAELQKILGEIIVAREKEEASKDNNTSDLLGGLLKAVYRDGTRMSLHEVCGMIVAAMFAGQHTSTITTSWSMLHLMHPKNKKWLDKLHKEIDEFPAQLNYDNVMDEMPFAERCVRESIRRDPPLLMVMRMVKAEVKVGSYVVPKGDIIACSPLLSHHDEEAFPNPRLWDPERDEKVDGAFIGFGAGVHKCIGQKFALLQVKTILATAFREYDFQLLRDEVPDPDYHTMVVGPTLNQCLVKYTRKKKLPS

[7] = tested on: Leishmania donovani; experiment: GSK_TCAKS: pIC50 Leishmania donovani Imaging: THP-1 Host Macrophages. Assay plates (384-well) were prepared by adding 250nL of compound to each well. For single shot assay, the final compound concentration was 5 uM. […] Automated image analysis was performed with a script developed on Acapella High Content Imaging and Analysis Software (PerkinElmer). Output: THP-1 cell count were reported for each well.; type: functional, organism-based, Homo sapiens
[8] = tested on: Leishmania donovani; experiment: GSK_TCAKS: pIC50 Leishmania donovani viability assay using fluorescence intensity. Assay plates (1536-well) were prepared by adding 30nL per well of compound. For single shot assay, the final compound concentration was 5uM. […] Briefly, eGFP LdBOB axenic amastigotes were harvested, fixed and counted in a CASY cell counter (Roche-Applied Science). A final concentration of 1.5 * 10^5 cells per well were prepared in amastigote media containing 500 U/mL penicillin/streptomycin (Invitrogen) and 6uL was dispensed to each experimental well using a Multidrop Combi dispenser (Thermo Scientific). 6uL of assay media was dispensed to control columns used as reference for 100% compound response. Following incubation for 72 h at 37C, 5% CO2, 2 uL of resazurin was added to each well at a final concentration of 0.5 mM in phosphate buffered saline (PBS) with IGEPAL (Sigma-Aldrich), 0.05% (v/v).; type: functional, organism-based
[9] = tested on: Trypanosoma cruzi; experiment: GSK_TCAKS: pIC50 Trypanosoma cruzi viability assay using beta-GAL activity. This assay was run at single shot at 5uM compound concentration per well. The biological reagents consisted of NIH-3T3 host cells and trypomastigotes parasitic cells; both cell types were set to a 3.3 * 10^5 cells/mL dilution in assay DMEM by means of a CASY cell counter device using a 60um capillary. 6 uL of the mixture were dispensed per well (about 1 * 10^3 host-cells and 1 * 10^3 parasites) with a Multidrop Combi dispenser. […] In all wells, the percentage of DMSO never exceeded 0.5%. Plates incubated for four days at 37C, 5% CO2. The substrate used for the assay fluorescence intensity (FLINT) readout was resorufin-beta-D-galactopiranoside (Sigma-Aldrich) at 5uM per well. It was diluted in PBS supplemented with the soft detergent Igepal (Fluka).; type: functional, organism-based, Mus musculus; settings: Tulahuen, NIH3T3
[10] = tested on: Trypanosoma cruzi; experiment: as §1, with “Trypanosoma cruzi” for “H2C9”, “Amastigotes/Cell.” for “H9c2 Host Cardiomyocytes.”, “number” for “Number”, “amastigotes per cell as infection level measurement.” for “H9c2 Host Cardiomyocytes nuclei to determine drug-related cytotoxicity.”; type: functional, organism-based, Rattus norvegicus; settings: H9c2, 4 h
[11] = tested on: Leishmania donovani; experiment: GSK_TCAKS: pIC50 Leishmania donovani Imaging: Infected Macrophages. Assay plates (384-well) were prepared by adding 250nL of compound to each well. For single shot assay, the final compound concentration was 5 uM. […] Automated image analysis was performed with a script developed on Acapella High Content Imaging and Analysis Software (PerkinElmer). Output: Percent of infected macrophage cells were reported for each well.; type: functional, organism-based, Homo sapiens; settings: THP-1
[12] = tested on: Trypanosoma cruzi; experiment: as §1, with “Trypanosoma cruzi” for “H2C9”, “Infected Cells.” for “H9c2 Host Cardiomyocytes.”, “percentage” for “Number”, “infected cells per well as a second infection marker.” for “H9c2 Host Cardiomyocytes nuclei to determine drug-related cytotoxicity.”; type: functional, organism-based, Rattus norvegicus; settings: H9c2, 4 h

Row | SMILES | IC50 [1] | IC50 [2] | IC50 at 48 h [3] | IC50 [4] | IC50 [5] | IC50 [6] | IC50 [7] | IC50 [8] | IC50 [9] | IC50 [10] | IC50 [11] | IC50 [12]
1 | O=C(Nc1nc(-c2ccccn2)cs1)c1ccc(S(=O)(=O)N2CCCCC2)cc1 | 0.398 µM | 1 µM | 63.1 µM | 0.631 µM | 2.51 µM | 6.31 µM | 12.6 µM | 0.631 µM | 0.631 µM | 0.398 µM | 1.26 µM | 0.631 µM
2 | Cc1ccccc1NS(=O)(=O)c1ccc2[nH]cc(C(=O)NC3CCCCC3)c(=O)c2c1 | 0.251 µM | 39.8 µM | 31.6 µM | 0.316 µM | 25.1 µM | 10 µM | 31.6 µM | > 50.1 µM | 10 µM | 10 µM | 39.8 µM | 15.8 µM
3 | CCN(CC)S(=O)(=O)c1ccc(OC)c(NC(=O)c2ccc([N+](=O)[O-])s2)c1 | 0.398 µM | > 50.1 µM | > 100 µM | 0.631 µM | > 50.1 µM | 31.6 µM | > 50.1 µM | > 50.1 µM | 0.251 µM | 0.126 µM | > 50.1 µM | 0.158 µM
4 | NS(=O)(=O)c1ccc(CNC(=O)c2ccc([N+](=O)[O-])s2)cc1 | 0.251 µM | 12.6 µM | 15.8 µM | 0.251 µM | 20 µM | 39.8 µM | 39.8 µM | 31.6 µM | 1 µM | 0.794 µM | 25.1 µM | 5.01 µM
5 | Cc1ccccc1NS(=O)(=O)c1ccc2[nH]cc(C(=O)NC3CCCC3)c(=O)c2c1 | 0.316 µM | 39.8 µM | 25.1 µM | 0.631 µM | 20 µM | 12.6 µM | 31.6 µM | > 50.1 µM | 25.1 µM | 25.1 µM | > 50.1 µM | 31.6 µM
6 | C[C@@H](Oc1cc(-n2cnc3ccc(C(O)CO)cc32)sc1C(N)=O)c1ccccc1C(F)(F)F (some centres not stated) | 0.398 µM | 12.6 µM | > 10 µM | 0.794 µM | 0.631 µM | 25.1 µM | 15.8 µM | 15.8 µM | 5.01 µM | 15.8 µM | 20 µM | 20 µM
7 | COc1cccc(S(=O)(=O)Nc2ccc3c(c2)CC(N2CCC(NC(=O)C4CC4)CC2)C3)c1 (configuration not stated) | 1 µM | 25.1 µM | > 100 µM | 0.794 µM | > 50.1 µM | 63.1 µM | > 50.1 µM | > 50.1 µM | 39.8 µM | 31.6 µM | > 50.1 µM | > 50.1 µM
8 | O=C(NC1CCN(C2Cc3ccc(NS(=O)(=O)c4cc(F)cc(F)c4)cc3C2)CC1)C1CC1 (configuration not stated) | 1 µM | 12.6 µM | > 100 µM | 0.794 µM | > 50.1 µM | 50.1 µM | 12.6 µM | 25.1 µM | > 50.1 µM | > 50.1 µM | > 50.1 µM | > 50.1 µM
9 | COc1cccc(C(=O)[C@H]2C[C@@H]2CN(Cc2ccccn2)Cc2ccccn2)c1 | 15.8 µM | 1.58 µM | > 100 µM | 20 µM | 20 µM | 31.6 µM | > 50.1 µM | 7.94 µM | 1.26 µM | 0.794 µM | 2 µM | 1.26 µM
10 | O=C(CC1(O)C(=O)N(Cc2ccccc2)c2ccc(Br)cc21)c1cccnc1 (configuration not stated) | 0.631 µM | 31.6 µM | 63.1 µM | 0.794 µM | 3.16 µM | 3.98 µM | 39.8 µM | > 50.1 µM | 5.01 µM | 20 µM | > 50.1 µM | 25.1 µM
11 | O=C(Nc1ccc(-c2nc3ccccc3c(=O)[nH]2)cc1)c1cccs1 | 0.251 µM | > 50.1 µM | > 100 µM | 1 µM | > 50.1 µM | > 100 µM | > 50.1 µM | > 50.1 µM | 3.16 µM | > 50.1 µM | > 50.1 µM | > 50.1 µM
